# Measured values from patent US20230093099A1, “COMPOUNDS AND METHODS OF TREATING CANCERS” (CULLGEN (SHANGHAI), INC., priority 2019, published 2023).
# Test system: RS4;11 cells
# Assay: Cell viability assay (CellTiter-Glo) in RS4;11 cells
# Type: cell-based
# Details: Homo sapiens, 72 h; RS4;11 cells; cell viability, 3 days, CellTiter-Glo; read-out: IC50
# Protocol: Specific exemplary heterobifunctional compounds were first characterized using cell viability assays. RS4;11 ALL cells were treated with bifunctional degraders for three days. The IC50 values ranged from 2 nM to over 10 uM.
# MV4;11, RS4;11, Kasumi-1, HEL and other cells were treated with NVP-BSK805, TG101209 or selected degraders for 3 days at indicated concentrations following a 3-fold serial dilution.
# HEL, RS4;11, MV4;11, Kasumi-1 and other cells were cultured at 37° C. with 5% CO2 in RPMI 1640 or DMEM Medium supplemented with 10% fetal bovine serum. Cells were authenticated using the short tandem repeat (STR) assays. Mycoplasma test results were negative.
# Cells were seeded at a density of 5000 cells per well in 96-well assay plates and treated with test compounds following a 8-point or 12-point 3-fold serial dilution. Three days later, cell viability was determined using the CellTiter-Glo assay kit according to the manufacturer's instructions. The dose-response curves were determined and IC50 values were calculated using the GraphPad Prism software following a nonlinear regression (least squares fit) method.
row,IC50,SMILES
1,> 10000 nM,"CS(=O)(=O)c1ccc(-c2cccc3nc(Nc4ccc(N5CCN(CC(=O)NCCCCNc6cccc7c6C(=O)N(C6CCC(=O)NC6=O)C7=O)CC5)cc4)nn23)cc1 (stereo not drawn) [JA-109, N-(4-((2-(2,6-Dioxopiperidin-3-yl)-1,3-dioxoisoindolin-4-yl)amino)butyl)-2-(4-(4-((5-(4-(methylsulfonyl)phenyl)-[1,2,4]triazolo[1,5-a]pyridin-2-yl)amino)phenyl)piperazin-1-yl)acetamide]"
2,> 10000 nM,"Cc1cnc(Nc2ccc(N3CCN(CC(=O)NCCOCCC(=O)N[C@H](C(=O)N4C[C@H](O)C[C@H]4C(=O)NCc4ccc(-c5scnc5C)cc4)C(C)(C)C)CC3)cc2)nc1Nc1cccc(S(=O)(=O)NC(C)(C)C)c1 [JA-218, (2S,4R)-1-((S)-2-(3-(2-(2-(4-(4-((4-((3-(N-(tert-butyl)sulfamoyl)phenyl)amino)-5-methylpyrimidin-2-yl)amino)phenyl)piperazin-1-yl)acetamido)ethoxy)propanamido)-3,3-dimethylbutanoyl)-4-hydroxy-N-(4-(4-methylthiazol-5-yl)benzyl)pyrrolidine-2-carboxamide]"
3,> 10000 nM,"Cc1cnc(Nc2ccc(N3CCN(C(=O)CCCCCCNc4ccc5c(c4)C(=O)N(C4CCC(=O)NC4=O)C5=O)CC3)cc2)nc1Nc1cccc(S(=O)(=O)NC(C)(C)C)c1 (stereo not drawn) [JA-230, N-(tert-butyl)-3-((2-((4-(4-(7-((2-(2,6-dioxopiperidin-3-yl)-1,3-dioxoisoindolin-5-yl)amino)heptanoyl)piperazin-1-yl)phenyl)amino)-5-methylpyrimidin-4-yl)amino)benzenesulfonamide]"
4,484 nM,"Cc1cnc(Nc2ccc(N3CCN(CC(=O)NCCCCCCCCNc4ccc5c(c4)C(=O)N(C4CCC(=O)NC4=O)C5=O)CC3)cc2)nc1Nc1cccc(S(=O)(=O)NC(C)(C)C)c1 (stereo not drawn) [JA-247, 2-(4-(4-((4-((3-(N-(tert-butyl)sulfamoyl)phenyl)amino)-5-methylpyrimidin-2-yl)amino)phenyl)piperazin-1-yl)-N-(8-((2-(2,6-dioxopiperidin-3-yl)-1,3-dioxoisoindolin-5-yl)amino)octyl)acetamide]"
5,406 nM,"CS(=O)(=O)c1ccc(-c2cccc3nc(Nc4ccc(N5CCN(C(=O)CCOCCOCCOCCOCCOCCNc6cccc7c6C(=O)N(C6CCC(=O)NC6=O)C7=O)CC5)cc4)nn23)cc1 (stereo not drawn) [JA-077, 2-(2,6-Dioxo-piperidin-3-yl)-4-(2-{2-[2-(2-{2-[3-(4-{4-[5-(4-methanesulfonyl-phenyl)-[1,2,4]triazolo[1,5-a]pyridin-2-ylamino]-phenyl}-piperazin-1-yl)-3-oxo-propoxy]-ethoxy}-ethoxy)-ethoxy]-ethoxy}-ethylamino)-isoindole-1,3-dione]"
6,104 nM,"CS(=O)(=O)c1ccc(-c2cccc3nc(Nc4ccc(N5CCN(C(=O)CCCCCCc6ccc7c(c6)C(=O)N(C6CCC(=O)NC6=O)C7=O)CC5)cc4)nn23)cc1 (stereo not drawn) [JA-249, 2-(2,6-Dioxopiperidin-3-yl)-5-(7-(4-(4-((5-(4-(methylsulfonyl)phenyl)-[1,2,4]triazolo[1,5-a]pyridin-2-yl)amino)phenyl)piperazin-1-yl)-7-oxoheptyl)isoindoline-1,3-dione]"
7,> 500 nM,"Cn1c(=O)n(C2CCC(=O)NC2=O)c2cccc(NCCCCCC(=O)N3CCN(c4ccc(Nc5nc6cccc(-c7ccc(S(C)(=O)=O)cc7)n6n5)cc4)CC3)c21 (stereo not drawn) [JA-284, 3-(3-Methyl-4-((6-(4-(4-((5-(4-(methylsulfonyl)phenyl)-[1,2,4]triazolo[1,5-a]pyridin-2-yl)amino)phenyl)piperazin-1-yl)-6-oxohexyl)amino)-2-oxo-2,3-dihydro-1H-benzo[d]imidazol-1-yl)piperidine-2,6-dione]"
8,> 10000 nM,"Cc1cnc(Nc2ccc(N3CCN(CC(=O)NCCCCC(=O)N[C@H](C(=O)N4C[C@H](O)C[C@H]4C(=O)NCc4ccc(-c5scnc5C)cc4)C(C)(C)C)CC3)cc2)nc1Nc1cccc(S(=O)(=O)NC(C)(C)C)c1 [JA-100, (2S,4R)-1-((S)-2-(5-(2-(4-(4-((4-((3-(N-(tert-Butyl)sulfamoyl)phenyl)amino)-5-methylpyrimidin-2-yl)amino)phenyl)piperazin-1-yl)acetamido)pentanamido)-3,3-dimethylbutanoyl)-4-hydroxy-N-(4-(4-methylthiazol-5-yl)benzyl)pyrrolidine-2-carboxamide]"

# Further lines, the compound ahead of its results:
row,SMILES,IC50
1,"Cc1cnc(Nc2ccc(N3CCN(CC(=O)NCCOCCOCCOCCOCCOCCNc4ccc5c(c4)C(=O)N(C4CCC(=O)NC4=O)C5=O)CC3)cc2)nc1Nc1cccc(S(=O)(=O)NC(C)(C)C)c1 (stereo not drawn) [JA-241, 2-(4-(4-((4-((3-(N-(tert-butyl)sulfamoyl)phenyl)amino)-5-methylpyrimidin-2-yl)amino)phenyl)piperazin-1-yl)-N-(17-((2-(2,6-dioxopiperidin-3-yl)-1,3-dioxoisoindolin-5-yl)amino)-3,6,9,12,15-pentaoxaheptadecyl)acetamide]",1040 nM
2,"Cc1ncsc1-c1ccc(CNC(=O)[C@@H]2C[C@@H](O)CN2C(=O)[C@@H](NC(=O)CCCCCCCCNC(=O)CN2CCC(n3cc(-c4cnc5cccc(-c6cc(F)c(CN7CCOCC7)c(F)c6)c5n4)cn3)CC2)C(C)(C)C)cc1 [JA-161, (2S,4R)-1-((S)-2-(9-(2-(4-(4-(8-(3,5-Difluoro-4-(morpholinomethyl)phenyl)quinoxalin-2-yl)-1H-pyrazol-1-yl)piperidin-1-yl)acetamido)nonanamido)-3,3-dimethylbutanoyl)-4-hydroxy-N-(4-(4-methylthiazol-5-yl)benzyl)pyrrolidine-2-carboxamide]",2370 nM
3,"Cc1cnc(Nc2ccc(N3CCN(C(=O)CCCCCCC(=O)N[C@H](C(=O)N4C[C@H](O)C[C@H]4C(=O)NCc4ccc(-c5scnc5C)cc4)C(C)(C)C)CC3)cc2)nc1Nc1cccc(S(=O)(=O)NC(C)(C)C)c1 [JA-026, (2S,4R)-1-((S)-2-(8-(4-(4-((4-((3-(N-(tert-Butyl)sulfamoyl)phenyl)amino)-5-methylpyrimidin-2-yl)amino)phenyl)piperazin-1-yl)-8-oxooctanamido)-3,3-dimethylbutanoyl)-4-hydroxy-N-(4-(4-methylthiazol-5-yl)benzyl)pyrrolidine-2-carboxamide]",> 10000 nM
4,"O=C1CCC(N2C(=O)c3ccc(CCCCCCC(=O)N4CCC(n5cc(-c6cnc7cccc(-c8cc(F)c(CN9CCOCC9)c(F)c8)c7n6)cn5)CC4)cc3C2=O)C(=O)N1 (stereo not drawn) [JA-257, 5-(7-(4-(4-(8-(3,5-Difluoro-4-(morpholinomethyl)phenyl)quinoxalin-2-yl)-1H-pyrazol-1-yl)piperidin-1-yl)-7-oxoheptyl)-2-(2,6-dioxopiperidin-3-yl)isoindoline-1,3-dione]",137 nM
5,"CS(=O)(=O)c1ccc(-c2cccc3nc(Nc4ccc(N5CCN(CC(=O)NCCCCCCCCNc6cccc7c6C(=O)N(C6CCC(=O)NC6=O)C7=O)CC5)cc4)nn23)cc1 (stereo not drawn) [JA-118, N-(8-((2-(2,6-Dioxopiperidin-3-yl)-1,3-dioxoisoindolin-4-yl)amino)octyl)-2-(4-(4-((5-(4-(methylsulfonyl)phenyl)-[1,2,4]triazolo[1,5-a]pyridin-2-yl)amino)phenyl)piperazin-1-yl)acetamide]",> 10000 nM
6,"Cc1cnc(Nc2ccc(N3CCN(CC(=O)NCCNc4cccc5c4C(=O)N(C4CCC(=O)NC4=O)C5=O)CC3)cc2)nc1Nc1cccc(S(=O)(=O)NC(C)(C)C)c1 (stereo not drawn) [JA-090, 2-(4-(4-((4-((3-(N-(tert-Butyl)sulfamoyl)phenyl)amino)-5-methylpyrimidin-2-yl)amino)phenyl)piperazin-1-yl)-N-(2-((2-(2,6-dioxopiperidin-3-yl)-1,3-dioxoisoindolin-4-yl)amino)ethyl)acetamide]",3480 nM
7,"CS(=O)(=O)c1ccc(-c2cccc3nc(Nc4ccc(N5CCN(C(=O)CCCNc6cccc7c6C(=O)N(C6CCC(=O)NC6=O)C7=O)CC5)cc4)nn23)cc1 (stereo not drawn) [JA-010, 2-(2,6-Dioxopiperidin-3-yl)-4-((4-(4-(4-((5-(4-(methylsulfonyl)phenyl)-[1,2,4]triazolo[1,5-a]pyridin-2-yl)amino)phenyl)piperazin-1-yl)-4-oxobutyl)amino)isoindoline-1,3-dione]",> 10000 nM
8,Cc1cnc(Nc2ccc(N3CCN(C(=O)CCOCCOCCOCCOCCOCCNc4cccc5c4C(=O)N(C4CCC(=O)NC4=O)C5=O)CC3)cc2)nc1Nc1cccc(S(=O)(=O)NC(C)(C)C)c1 (stereo not drawn) [JA-021],940 nM
9,"CS(=O)(=O)c1ccc(-c2cccc3nc(Nc4ccc(N5CCN(CC(=O)NCCOCCOCCNc6ccc7c(c6)C(=O)N(C6CCC(=O)NC6=O)C7=O)CC5)cc4)nn23)cc1 (stereo not drawn) [JA-208, N-(2-(2-(2-((2-(2,6-Dioxopiperidin-3-yl)-1,3-dioxoisoindolin-5-yl)amino)ethoxy)ethoxy)ethyl)-2-(4-(4-((5-(4-(methylsulfonyl)phenyl)-[1,2,4]triazolo[1,5-a]pyridin-2-yl)amino)phenyl)piperazin-1-yl)acetamide]",3350 nM
10,"Cc1ncsc1-c1ccc(CNC(=O)[C@@H]2C[C@@H](O)CN2C(=O)[C@@H](NC(=O)CCNC(=O)CN2CCN(c3ccc(Nc4nc5cccc(-c6ccc(S(C)(=O)=O)cc6)n5n4)cc3)CC2)C(C)(C)C)cc1 [JA-119, (2S,4R)-1-((S)-3,3-Dimethyl-2-(3-(2-(4-(4-((5-(4-(methylsulfonyl)phenyl)-[1,2,4]triazolo[1,5-a]pyridin-2-yl)amino)phenyl)piperazin-1-yl)acetamido)propanamido)butanoyl)-4-hydroxy-N-(4-(4-methylthiazol-5-yl)benzyl)pyrrolidine-2-carboxamide]",> 10000 nM
